Here are results for seven molecules from patent EP0368175A1, “3S,7S-3-(Morpholinocarbonyl)-5-(2-chlorphenyl)-7,10-dimethyl-3,4-dihydro-2H,7H-cyclopenta[4,5]thieno[3,2-f][1,2,4]triazolo[4,3-a][1,4]diazepine” (BOEHRINGER INGELHEIM KG, priority 1988, dated 1990).

The assay addresses T1, PAF-Rezeptor (Homo sapiens, UniProt P25105).
T1 construct: endogenous in cells; host or cells: intact human platelets from blood of healthy donors, purified on Sepharose CL-2B
In words: [^3H]PAF receptor binding on vital human platelets. As for the experimental part: [^3H]PAF-Rezeptor-Bindung an vitalen humanen Blutplättchen
Bestimmt wird die konkurrierende Wechselwirkung von Prüfsubstanzen (hier PAF-Antagonisten) mit der bekannten Wechselwirkung des Radioliganden [^3H]PAF zum gleichen Rezeptor.
Die Bindungsstudien wurden an vitalem menschlichen Thrombozyten vorgenommen. Blutproben von gesunden Spendern wurden mit ACD-Puffer verdünnt und zentrifugiert (15 Min., 160 x g). Das blättchenreiche Plasma wird durch Chromatographie an Sepharose CL-2B [Zum Eluieren: HEPES-Puffer, pH 7,4 20° C] gereinigt.
Definierte Mengen [z.B. 800 µl] der Blättchensuspension wurden 90 Min. bei Raumtemperatur inkubiert, d.h. vermischt mit: • a) einer […] [^3H]PAF-Lösung, verdünnt mit Puffer. • b) mit einer 30 p molaren [^3H] PAF-Lösung, die gleichzeitig eine u.-molare (nicht markierte) PAF-Lösung enthält, • c) mit der 30 pmolaren [^3H]PAF-Lösung und den Lösungen der Prüfsubstanzen (unterschiedliche Konzentrationen) • a) Dient zur Ermittlung der totalen Bindung, • b) Dient zur Ermittlung der unspezifischen Bindung.
Die Reaktion wurde durch Vakuumfiltration abgestoppt. Die Filter mit den Blutplättchen werden mit Scintilationsflüssigkeit versetzt und die verbliebene Radioaktivität in einem Counter gemessen. Die spezifische Bindung ergibt sich aus totaler Bindung minus unspezifischer Bindung. Man bestimmt entweder die ICso-Werte (d.h. jene Konzentration der Prüfsubstanz, die 50 % des Radioliganden - hier [^3H] PAF - vom Rezeptor verdrängt), und gibt diese an. Oder errechnet hieraus die Ki-Werte. Dies kann computerunterstützt durch ein Iterationsverfahren der Bindungskurven geschehen. ICso- bzw. Ki-Werte sind ein Maß für die Rezeptoraffinität der Testsubstanz. Kleinere Werte zeigen die höhere Affinität an.

Setting [1] is: four separated isomers of Example 9d, read-out: [^3H]PAF-Bindung (Ki).

Like-named read-outs stand apart in the source and are kept apart here.

T1 sequence (P25105 whole entry): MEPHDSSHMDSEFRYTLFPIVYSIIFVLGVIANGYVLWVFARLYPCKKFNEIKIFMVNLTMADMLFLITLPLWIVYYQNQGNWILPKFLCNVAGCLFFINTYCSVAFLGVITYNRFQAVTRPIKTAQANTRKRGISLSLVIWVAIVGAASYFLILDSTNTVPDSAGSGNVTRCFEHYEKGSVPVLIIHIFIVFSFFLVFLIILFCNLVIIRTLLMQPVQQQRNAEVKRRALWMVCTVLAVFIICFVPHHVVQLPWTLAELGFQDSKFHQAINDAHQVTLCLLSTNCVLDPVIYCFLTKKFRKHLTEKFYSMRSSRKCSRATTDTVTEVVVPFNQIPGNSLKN

Turning to “3-(Morpholinocarbonyl)-5-(2-chlorphenyl)-7,10-dimethyl-3,4-dihydro-2H,7H-cyclopenta[4,5,thieno-[3,2-f]-[1.2.4]triazolo[4.3-a] [1,4]diazepin [(-) 9dB]”, under setting [1], the Ki was determined as 0.008 µM.

Consider `Cc1nnc2n1-c1sc(CCC(=O)N3CCOCC3)cc1C(c1ccccc1Cl)=NC2C` (racemic) [Beispiel 1, 2-(Morpholinylcarbonylethyl)-4-(2-chlorphenyl)-6,9-dimethyl-6H-thieno(3,2-f][1,2,4]triazolo[4,3-a][1,4]diazepin], for which the Ki (not stated whether IC50 or Ki, read-out: Affinität zum PAF-Rezeptor) stood at 0.016 µM. For `Cc1nnc2n1-c1sc(CCC(=O)N3CCOCC3)cc1C(c1ccccc1Cl)=NC2C` (single isomer, unassigned) [IB, 2-(Morpholinylcarbonylethyl)-4-(2-chlorphenyl)-6,9-dimethyl-6H-thieno(3,2-f][1,2,4]triazolo[4,3-a][1,4]diazepin], the “bindet stärker an den PAF-Rezeptor als die (+)-Form (1A)” value (ratio of binding, (-)-form versus (+)-form of Example 1) was found to be 35 mal.

For `Cc1nnc2n1-c1sc3c(c1C(c1ccccc1Cl)=NC2C)CC(C(=O)N1CCOCC1)C3` (single isomer, unassigned; (+)) [(+) 9dA], the Ki under setting [1] was 0.4 µM. `Cc1nnc2n1-c1sc3c(c1C(c1ccccc1Cl)=NC2C)CC(C(=O)N1CCOCC1)C3` (single isomer, unassigned; (+)) [(+) 9dB]: the Ki under setting [1] was 3 µM. `Cc1nnc2n1-c1sc3c(c1C(c1ccccc1Cl)=NC2C)CC(C(=O)N1CCOCC1)C3` (single isomer, unassigned; (-)) [(-) 9dA]: under setting [1], the Ki was determined as 0.07 µM. As to `Cc1nnc2n1-c1sc3c(c1C(c1ccccc1Cl)=NC2C)CC(C(=O)N1CCOCC1)C3` (stereo not shown) [Beispiel 9d], for the setting “33 : 67 mixture of diastereomers, read-out: [^3H]PAF-Bindung: K”, the Ki is 0.083 µM.
